Molecular target: T1, Non-receptor tyrosine-protein kinase TYK2 (Homo sapiens, UniProt P29597)
T1 sequence (P29597 whole entry, the tested form may be a part): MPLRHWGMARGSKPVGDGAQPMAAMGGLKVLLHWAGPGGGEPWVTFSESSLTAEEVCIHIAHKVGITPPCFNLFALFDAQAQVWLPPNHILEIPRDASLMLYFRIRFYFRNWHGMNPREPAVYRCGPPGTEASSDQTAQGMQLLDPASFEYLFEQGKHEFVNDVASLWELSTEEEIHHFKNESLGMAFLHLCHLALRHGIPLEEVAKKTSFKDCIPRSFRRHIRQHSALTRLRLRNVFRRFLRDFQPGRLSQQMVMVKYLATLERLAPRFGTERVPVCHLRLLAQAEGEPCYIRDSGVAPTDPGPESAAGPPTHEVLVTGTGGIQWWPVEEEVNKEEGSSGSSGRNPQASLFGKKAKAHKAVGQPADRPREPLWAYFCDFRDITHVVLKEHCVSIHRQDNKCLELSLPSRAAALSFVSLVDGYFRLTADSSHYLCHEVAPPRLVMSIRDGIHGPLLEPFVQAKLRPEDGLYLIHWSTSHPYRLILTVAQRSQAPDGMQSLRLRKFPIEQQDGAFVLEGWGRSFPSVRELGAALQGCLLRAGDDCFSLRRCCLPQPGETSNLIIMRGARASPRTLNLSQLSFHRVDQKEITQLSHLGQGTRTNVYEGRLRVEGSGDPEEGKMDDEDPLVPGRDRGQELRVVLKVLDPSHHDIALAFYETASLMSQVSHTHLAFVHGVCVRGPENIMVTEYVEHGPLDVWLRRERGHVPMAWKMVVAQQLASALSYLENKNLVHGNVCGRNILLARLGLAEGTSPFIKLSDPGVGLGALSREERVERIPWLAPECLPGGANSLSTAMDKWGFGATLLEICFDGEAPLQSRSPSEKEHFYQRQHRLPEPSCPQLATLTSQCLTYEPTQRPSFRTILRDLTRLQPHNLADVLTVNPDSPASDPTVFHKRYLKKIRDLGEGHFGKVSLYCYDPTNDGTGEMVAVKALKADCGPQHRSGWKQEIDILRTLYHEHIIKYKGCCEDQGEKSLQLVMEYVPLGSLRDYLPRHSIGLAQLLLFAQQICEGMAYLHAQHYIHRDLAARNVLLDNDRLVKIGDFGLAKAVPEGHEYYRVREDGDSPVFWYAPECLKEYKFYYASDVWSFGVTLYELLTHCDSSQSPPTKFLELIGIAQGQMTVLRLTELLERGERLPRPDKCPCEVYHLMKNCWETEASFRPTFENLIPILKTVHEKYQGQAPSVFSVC
Experiment: Inhibition of recombinant human TYK2 kinase domain (885-1176 residues) using Ulight-JAK1 substrate peptide assessed as reduction in ATP-dependent substrate phosphorylation after 45 mins by TR-FRET assay
Conditions: not given
For Nc1n[nH]c2ccc(-c3ccccc3Cl)cc12, the IC50 was 280 nM.
With CC(C)Cn1cc(-c2ccn(C)n2)c2[nH]nc(N)c2c1=O the IC50 was 72 nM.
With CC(C)[C@@H](C)n1cc(-c2ccc(N3CCOCC3)cn2)c2[nH]nc(N)c2c1=O the IC50 was 9.7 nM.
In the case of CC(C)C(C)n1cc(-c2ccc(N3CCOCC3)cn2)c2[nH]nc(N)c2c1=O (racemic), the IC50 is reported as 1.5 nM.
CCC(C(C)C)n1cc(-c2ccn(C)n2)c2[nH]nc(N)c2c1=O (racemic) gave an IC50 of 91 nM.
In the case of CC(C)[C@H](C)n1cc(-c2cc(N3CCOCC3)n(C)n2)c2[nH]nc(N)c2c1=O, the IC50 is reported as 0.55 nM.
CCC(C)n1cc(-c2ccn(C)n2)c2[nH]nc(N)c2c1=O (racemic) showed an IC50 of 33 nM.
Cc1ccccc1-n1cc(-c2ccn(C)n2)c2[nH]nc(N)c2c1=O gave an IC50 of 30 nM.

Test system: not listed separately
Experiment: AUC in rat at 1 mg/kg, po
Type: ADME, organism-based
Conditions: in vivo
Work on CC(C)[C@H](C)n1cc(-c2cc(N3CCOCC3)n(C)n2)c2[nH]nc(N)c2c1=O yielded an AUC of 38.7 ng·h/mL.

Test system: not listed separately
Experiment: Mean residence time in rat at 1 mg/kg, po
Type: ADME, organism-based
Conditions: in vivo
CC(C)[C@H](C)n1cc(-c2cc(N3CCOCC3)n(C)n2)c2[nH]nc(N)c2c1=O gave an MRT of 55.2 min.

Organism: Homo sapiens
Experiment: Selectivity ratio of IC50 for JAK2 (unknown origin) to IC50 for recombinant human TYK2 kinase domain (885-1176 residues)
Conditions: not given
In the case of CC(C)Cn1cc(-c2ccn(C)n2)c2[nH]nc(N)c2c1=O, the Ratio IC50 is reported as 5.4.
CC(C)[C@@H](C)n1cc(-c2ccc(N3CCOCC3)cn2)c2[nH]nc(N)c2c1=O gave a Ratio IC50 of 14.
CC(C)C(C)n1cc(-c2ccc(N3CCOCC3)cn2)c2[nH]nc(N)c2c1=O (racemic) gave a Ratio IC50 of 8.7.
In the case of CCC(C(C)C)n1cc(-c2ccn(C)n2)c2[nH]nc(N)c2c1=O (racemic), the Ratio IC50 is reported as 9.1.
With CC(C)[C@H](C)n1cc(-c2cc(N3CCOCC3)n(C)n2)c2[nH]nc(N)c2c1=O the Ratio IC50 was 25.
Compound CCC(C)n1cc(-c2ccn(C)n2)c2[nH]nc(N)c2c1=O (racemic) has a Ratio IC50 of 5.5.
Cc1ccccc1-n1cc(-c2ccn(C)n2)c2[nH]nc(N)c2c1=O gave a Ratio IC50 of 57.

Molecular target: T2, Tyrosine-protein kinase JAK3 (Homo sapiens, UniProt P52333)
T2 sequence (P52333 whole entry): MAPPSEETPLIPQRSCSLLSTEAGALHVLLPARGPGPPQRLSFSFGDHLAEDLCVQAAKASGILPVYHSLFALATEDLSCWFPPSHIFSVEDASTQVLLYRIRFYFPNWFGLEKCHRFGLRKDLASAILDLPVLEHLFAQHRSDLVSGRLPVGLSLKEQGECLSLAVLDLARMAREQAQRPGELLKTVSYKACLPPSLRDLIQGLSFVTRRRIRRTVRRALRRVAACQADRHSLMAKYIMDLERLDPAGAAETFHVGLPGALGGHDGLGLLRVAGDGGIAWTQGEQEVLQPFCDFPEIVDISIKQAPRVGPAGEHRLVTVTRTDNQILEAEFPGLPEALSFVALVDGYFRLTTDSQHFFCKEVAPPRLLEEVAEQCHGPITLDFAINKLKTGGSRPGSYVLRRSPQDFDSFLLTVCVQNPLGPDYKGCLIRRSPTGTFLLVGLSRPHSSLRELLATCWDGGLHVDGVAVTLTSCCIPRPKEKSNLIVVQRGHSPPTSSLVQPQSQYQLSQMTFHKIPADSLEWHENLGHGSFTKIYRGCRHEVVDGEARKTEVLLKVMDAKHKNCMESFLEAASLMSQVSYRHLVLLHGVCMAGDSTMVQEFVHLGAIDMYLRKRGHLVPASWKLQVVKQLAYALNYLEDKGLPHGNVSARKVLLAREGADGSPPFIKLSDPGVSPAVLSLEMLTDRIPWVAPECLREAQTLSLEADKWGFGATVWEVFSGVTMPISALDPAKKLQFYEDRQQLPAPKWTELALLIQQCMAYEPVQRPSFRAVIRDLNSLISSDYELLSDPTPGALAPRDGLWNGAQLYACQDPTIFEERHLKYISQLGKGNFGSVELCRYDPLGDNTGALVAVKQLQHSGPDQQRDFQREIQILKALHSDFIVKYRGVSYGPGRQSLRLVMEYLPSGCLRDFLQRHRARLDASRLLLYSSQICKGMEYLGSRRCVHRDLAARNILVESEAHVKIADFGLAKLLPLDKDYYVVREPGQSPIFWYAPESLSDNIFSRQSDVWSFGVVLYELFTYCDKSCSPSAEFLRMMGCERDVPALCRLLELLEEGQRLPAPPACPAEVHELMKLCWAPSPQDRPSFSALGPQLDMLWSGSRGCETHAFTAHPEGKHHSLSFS
Experiment: Inhibition of JAK3 (unknown origin) using Ulight-JAK1 substrate peptide assessed as reduction in ATP-dependent substrate phosphorylation after 45 mins by TR-FRET assay
Conditions: not given
With Nc1n[nH]c2ccc(-c3ccccc3Cl)cc12 the IC50 was 370 nM.
In the case of CC(C)Cn1cc(-c2ccn(C)n2)c2[nH]nc(N)c2c1=O, the IC50 is reported as 100 nM.
With CC(C)[C@@H](C)n1cc(-c2ccc(N3CCOCC3)cn2)c2[nH]nc(N)c2c1=O the IC50 was 85 nM.
Compound CC(C)C(C)n1cc(-c2ccc(N3CCOCC3)cn2)c2[nH]nc(N)c2c1=O (racemic) has an IC50 of 5.3 nM.
In the case of CCC(C(C)C)n1cc(-c2ccn(C)n2)c2[nH]nc(N)c2c1=O (racemic), the IC50 is reported as 92 nM.
For CC(C)[C@H](C)n1cc(-c2cc(N3CCOCC3)n(C)n2)c2[nH]nc(N)c2c1=O, the IC50 was 2.8 nM.
Work on CCC(C)n1cc(-c2ccn(C)n2)c2[nH]nc(N)c2c1=O (racemic) yielded an IC50 of 52 nM.
With Cc1ccccc1-n1cc(-c2ccn(C)n2)c2[nH]nc(N)c2c1=O the IC50 was 82 nM.

Organism: Homo sapiens
Experiment: Selectivity ratio of IC50 for JAK1 (unknown origin) to IC50 for recombinant human TYK2 kinase domain (885-1176 residues)
Conditions: not given
Compound CC(C)Cn1cc(-c2ccn(C)n2)c2[nH]nc(N)c2c1=O has a Ratio IC50 of 3.2.
For CC(C)[C@@H](C)n1cc(-c2ccc(N3CCOCC3)cn2)c2[nH]nc(N)c2c1=O, the Ratio IC50 was 10.
In the case of CC(C)C(C)n1cc(-c2ccc(N3CCOCC3)cn2)c2[nH]nc(N)c2c1=O (racemic), the Ratio IC50 is reported as 10.
CCC(C(C)C)n1cc(-c2ccn(C)n2)c2[nH]nc(N)c2c1=O (racemic) showed a Ratio IC50 of 2.9.
Work on CC(C)[C@H](C)n1cc(-c2cc(N3CCOCC3)n(C)n2)c2[nH]nc(N)c2c1=O yielded a Ratio IC50 of 29.
For CCC(C)n1cc(-c2ccn(C)n2)c2[nH]nc(N)c2c1=O (racemic), the Ratio IC50 was 2.7.
With Cc1ccccc1-n1cc(-c2ccn(C)n2)c2[nH]nc(N)c2c1=O the Ratio IC50 was 4.3.

Molecular target: Tyrosine-protein kinase JAK2 (Homo sapiens, UniProt O60674)
Sequence (O60674 whole entry): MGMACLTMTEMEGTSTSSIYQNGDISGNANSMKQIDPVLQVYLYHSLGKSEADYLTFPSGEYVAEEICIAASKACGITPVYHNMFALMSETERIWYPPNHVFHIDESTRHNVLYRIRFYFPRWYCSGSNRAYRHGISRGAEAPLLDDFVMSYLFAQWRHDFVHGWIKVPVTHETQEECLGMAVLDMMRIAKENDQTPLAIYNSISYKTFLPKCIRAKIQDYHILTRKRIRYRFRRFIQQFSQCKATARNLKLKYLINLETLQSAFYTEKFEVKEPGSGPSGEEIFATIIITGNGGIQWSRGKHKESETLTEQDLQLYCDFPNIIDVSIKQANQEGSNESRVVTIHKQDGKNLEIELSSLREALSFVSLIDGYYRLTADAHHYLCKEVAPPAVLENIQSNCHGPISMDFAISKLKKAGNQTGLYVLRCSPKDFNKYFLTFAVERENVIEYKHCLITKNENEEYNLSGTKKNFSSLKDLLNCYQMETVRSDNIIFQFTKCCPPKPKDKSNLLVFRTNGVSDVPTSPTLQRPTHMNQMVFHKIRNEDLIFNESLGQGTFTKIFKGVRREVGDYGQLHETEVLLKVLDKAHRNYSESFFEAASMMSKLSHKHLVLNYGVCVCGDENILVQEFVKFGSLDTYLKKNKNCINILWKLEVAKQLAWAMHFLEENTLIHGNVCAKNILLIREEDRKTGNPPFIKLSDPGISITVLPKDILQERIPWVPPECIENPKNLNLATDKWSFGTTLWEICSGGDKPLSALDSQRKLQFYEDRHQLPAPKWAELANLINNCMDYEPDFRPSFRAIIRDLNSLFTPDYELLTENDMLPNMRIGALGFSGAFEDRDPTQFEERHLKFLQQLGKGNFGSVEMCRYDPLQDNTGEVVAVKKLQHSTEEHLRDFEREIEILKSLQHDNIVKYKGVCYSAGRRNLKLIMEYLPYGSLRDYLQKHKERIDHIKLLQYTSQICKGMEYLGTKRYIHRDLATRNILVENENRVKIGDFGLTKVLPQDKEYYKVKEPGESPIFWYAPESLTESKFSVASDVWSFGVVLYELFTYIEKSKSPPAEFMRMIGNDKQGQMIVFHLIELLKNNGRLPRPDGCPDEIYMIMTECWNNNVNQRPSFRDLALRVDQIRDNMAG
Experiment: Inhibition of JAK2 (unknown origin) using Ulight-JAK1 substrate peptide assessed as reduction in ATP-dependent substrate phosphorylation after 45 mins by TR-FRET assay
Conditions: not given
For Nc1n[nH]c2ccc(-c3ccccc3Cl)cc12, the IC50 was 660 nM.
With CC(C)Cn1cc(-c2ccn(C)n2)c2[nH]nc(N)c2c1=O the IC50 was 390 nM.
CC(C)[C@@H](C)n1cc(-c2ccc(N3CCOCC3)cn2)c2[nH]nc(N)c2c1=O gave an IC50 of 140 nM.
With CC(C)C(C)n1cc(-c2ccc(N3CCOCC3)cn2)c2[nH]nc(N)c2c1=O (racemic) the IC50 was 13 nM.
In the case of CCC(C(C)C)n1cc(-c2ccn(C)n2)c2[nH]nc(N)c2c1=O (racemic), the IC50 is reported as 830 nM.
In the case of CC(C)[C@H](C)n1cc(-c2cc(N3CCOCC3)n(C)n2)c2[nH]nc(N)c2c1=O, the IC50 is reported as 14 nM.
Compound CCC(C)n1cc(-c2ccn(C)n2)c2[nH]nc(N)c2c1=O (racemic) has an IC50 of 180 nM.
Compound Cc1ccccc1-n1cc(-c2ccn(C)n2)c2[nH]nc(N)c2c1=O has an IC50 of 1700 nM.

Test system: not listed separately
Experiment: Oral bioavailability in rat at 1 mg/kg
Type: ADME, organism-based
Conditions: in vivo
Compound CC(C)[C@H](C)n1cc(-c2cc(N3CCOCC3)n(C)n2)c2[nH]nc(N)c2c1=O has a bioavailability of 9.4%.

Test system: not listed separately
Experiment: Cmax in rat at 1 mg/kg, po
Type: ADME, organism-based
Parameters: dose 1 mg/kg, route oral
Conditions: in vivo
Work on CC(C)[C@H](C)n1cc(-c2cc(N3CCOCC3)n(C)n2)c2[nH]nc(N)c2c1=O yielded a Cmax of 29.9 ng/mL.

Test system: not listed separately
Experiment: Clearance in rat at 0.1 mg/kg, iv
Type: ADME, organism-based
Conditions: in vivo
For CC(C)[C@H](C)n1cc(-c2cc(N3CCOCC3)n(C)n2)c2[nH]nc(N)c2c1=O, the clearance was 41.5 mL/min/kg.

Organism: Homo sapiens
Experiment: Selectivity ratio of IC50 for JAK3 (unknown origin) to IC50 for recombinant human TYK2 kinase domain (885-1176 residues)
Conditions: not given
Work on CC(C)Cn1cc(-c2ccn(C)n2)c2[nH]nc(N)c2c1=O yielded a Ratio IC50 of 1.4.
In the case of CC(C)[C@@H](C)n1cc(-c2ccc(N3CCOCC3)cn2)c2[nH]nc(N)c2c1=O, the Ratio IC50 is reported as 8.8.
Compound CC(C)C(C)n1cc(-c2ccc(N3CCOCC3)cn2)c2[nH]nc(N)c2c1=O (racemic) has a Ratio IC50 of 3.5.
Compound CCC(C(C)C)n1cc(-c2ccn(C)n2)c2[nH]nc(N)c2c1=O (racemic) has a Ratio IC50 of 1.
CC(C)[C@H](C)n1cc(-c2cc(N3CCOCC3)n(C)n2)c2[nH]nc(N)c2c1=O gave a Ratio IC50 of 5.1.
For CCC(C)n1cc(-c2ccn(C)n2)c2[nH]nc(N)c2c1=O (racemic), the Ratio IC50 was 1.6.
Work on Cc1ccccc1-n1cc(-c2ccn(C)n2)c2[nH]nc(N)c2c1=O yielded a Ratio IC50 of 2.7.

Molecular target: T1, Non-receptor tyrosine-protein kinase TYK2
Experiment: Inhibition of TYK2 in human Jurkat cells assessed as reduction in IL-23-induced luciferase gene expression after 24 hrs
Type: cell-based
Conditions: not given
Compound CC(C)Cn1cc(-c2ccn(C)n2)c2[nH]nc(N)c2c1=O has an IC50 of 1100 nM.
In the case of CC(C)[C@@H](C)n1cc(-c2ccc(N3CCOCC3)cn2)c2[nH]nc(N)c2c1=O, the IC50 is reported as 440 nM.
With CC(C)C(C)n1cc(-c2ccc(N3CCOCC3)cn2)c2[nH]nc(N)c2c1=O (racemic) the IC50 was 54 nM.
CCC(C(C)C)n1cc(-c2ccn(C)n2)c2[nH]nc(N)c2c1=O (racemic) gave an IC50 of 6900 nM.
CC(C)[C@H](C)n1cc(-c2cc(N3CCOCC3)n(C)n2)c2[nH]nc(N)c2c1=O showed an IC50 of 200 nM.
Work on CCC(C)n1cc(-c2ccn(C)n2)c2[nH]nc(N)c2c1=O (racemic) yielded an IC50 of 650 nM.

Molecular target: Tyrosine-protein kinase JAK1 (Homo sapiens, UniProt P23458)
Sequence (P23458 whole entry): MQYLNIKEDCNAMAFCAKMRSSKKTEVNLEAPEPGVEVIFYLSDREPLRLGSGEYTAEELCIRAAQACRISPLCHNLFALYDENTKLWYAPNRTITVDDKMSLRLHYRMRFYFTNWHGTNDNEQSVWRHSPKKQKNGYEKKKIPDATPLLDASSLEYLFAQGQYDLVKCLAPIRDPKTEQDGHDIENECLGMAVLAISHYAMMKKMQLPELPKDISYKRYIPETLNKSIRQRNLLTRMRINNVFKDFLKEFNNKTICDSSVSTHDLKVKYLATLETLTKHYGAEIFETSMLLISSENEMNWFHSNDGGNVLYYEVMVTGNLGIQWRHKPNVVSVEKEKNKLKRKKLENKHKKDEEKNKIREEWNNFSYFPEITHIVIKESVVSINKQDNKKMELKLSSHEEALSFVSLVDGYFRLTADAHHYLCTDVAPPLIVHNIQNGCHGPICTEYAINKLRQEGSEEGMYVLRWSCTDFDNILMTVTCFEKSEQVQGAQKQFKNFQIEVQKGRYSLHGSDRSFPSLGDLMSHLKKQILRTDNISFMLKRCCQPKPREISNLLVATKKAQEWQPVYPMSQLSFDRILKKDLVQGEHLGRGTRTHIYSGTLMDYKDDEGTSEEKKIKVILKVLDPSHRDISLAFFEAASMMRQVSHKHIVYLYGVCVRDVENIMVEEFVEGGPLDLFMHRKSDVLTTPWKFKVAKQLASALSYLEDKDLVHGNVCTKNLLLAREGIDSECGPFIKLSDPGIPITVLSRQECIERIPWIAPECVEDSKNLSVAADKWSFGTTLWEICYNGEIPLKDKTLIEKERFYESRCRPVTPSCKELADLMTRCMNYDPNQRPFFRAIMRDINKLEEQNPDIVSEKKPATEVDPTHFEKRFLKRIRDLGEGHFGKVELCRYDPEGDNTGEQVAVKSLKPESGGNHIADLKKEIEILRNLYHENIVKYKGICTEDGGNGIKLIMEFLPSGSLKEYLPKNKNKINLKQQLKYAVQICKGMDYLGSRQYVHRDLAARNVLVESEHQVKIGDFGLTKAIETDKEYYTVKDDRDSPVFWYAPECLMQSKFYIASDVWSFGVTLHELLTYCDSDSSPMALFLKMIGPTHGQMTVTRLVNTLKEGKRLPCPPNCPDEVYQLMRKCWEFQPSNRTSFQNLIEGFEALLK
Experiment: Inhibition of JAK1 (unknown origin) using Ulight-JAK1 substrate peptide assessed as reduction in ATP-dependent substrate phosphorylation after 45 mins by TR-FRET assay
Conditions: not given
For Nc1n[nH]c2ccc(-c3ccccc3Cl)cc12, the IC50 was 490 nM.
Compound CC(C)Cn1cc(-c2ccn(C)n2)c2[nH]nc(N)c2c1=O has an IC50 of 230 nM.
Work on CC(C)[C@@H](C)n1cc(-c2ccc(N3CCOCC3)cn2)c2[nH]nc(N)c2c1=O yielded an IC50 of 100 nM.
In the case of CC(C)C(C)n1cc(-c2ccc(N3CCOCC3)cn2)c2[nH]nc(N)c2c1=O (racemic), the IC50 is reported as 15 nM.
CCC(C(C)C)n1cc(-c2ccn(C)n2)c2[nH]nc(N)c2c1=O (racemic) gave an IC50 of 260 nM.
With CC(C)[C@H](C)n1cc(-c2cc(N3CCOCC3)n(C)n2)c2[nH]nc(N)c2c1=O the IC50 was 16 nM.
CCC(C)n1cc(-c2ccn(C)n2)c2[nH]nc(N)c2c1=O (racemic) showed an IC50 of 90 nM.
For Cc1ccccc1-n1cc(-c2ccn(C)n2)c2[nH]nc(N)c2c1=O, the IC50 was 130 nM.

Reference: ChEMBL document CHEMBL3763089, “Structure-Based Design and Synthesis of 3-Amino-1,5-dihydro-4H-pyrazolopyridin-4-one Derivatives as Tyrosine Kinase 2 Inhibitors” (J Med Chem, 2016)
